Test results published in patent publication US10251843B2, “Crosslinked nanoparticle composition” (priority 2015, dated 2019).

Assays:
[1] = In vivo pharmacokinetics, serum amoxicillin after oral gavage; details: ICR mice
Procedure: The experiments were performed on male and female ICR mice (6-8 weeks) to evaluate the amoxicillin concentration in serum. […] Each testing group contained 10 mice (five male and five female). The concentration of amoxicillin in each collected serum sample was determined by HPLC.

[2] = mice, reported; cited from earlier work

Which “time at which serum concentration of amoxicillin peaked” value ([1]; 2 mg amoxicillin) does the source give for `CC1(C)S[C@@H]2[C@H](NC(=O)[C@H](N)c3ccc(O)cc3)C(=O)N2[C@H]1C(=O)O.O.O.O` [free amoxicillin, (2S,5R,6R)-6-[(R)-(−)-2-amino-2-(p-hydroxyphenyl)acetamido]-3,3-dimethyl-7-oxo-4-thia-1-azabicyclo[3.2.0]heptane-2-carboxylic acid trihydrate] here?
The value was 15 min.

And the “serum concentration as % of the peak value” ([1]; after 1 hour)?
The value was “below 50%”.

And the “serum concentration as % of the peak value” ([1]; after 2 hours)?
Its value is “below 20%”.

And the “area under the curve (total measured amount of drug in the circulation)” value ([1]; compared with the nanoparticle formulation)?
Its value is “smaller area”.

What about the “plasma half-life of amoxicillin” value [2] of the same compound?
Its value is “about 40 minutes”.
